Assay results as given in article PMC3587609, “A Novel Cell-Penetrating Peptide Derived from Human Eosinophil Cationic Protein” (PLoS ONE, 2013).

What was measured:
Beas-2B cells [1] = assay: Cell-surface HS / CS after enzyme treatment (anti-HS or anti-CS antibody, flow cytometry); format: cell-based; details: 5 U/ml heparinase I or 2.4 U/ml heparinase III, 2 h, anti-HS monoclonal antibody, untreated cells 100%, n = 3
Procedure: Figure 3 HS-dependent ECP^32–-41 internalization. […] (B) Samples of wild-type and mutant CHO cells were each incubated with 5 µM FITC-ECP^32–41 at 37°C for 1 h and then subjected to flow cytometry. (C) Samples of wild-type and mutant CHO cells were incubated with 5 µM FITC-ECP^32–41 at 37°C for 1 h., then washed twice with 1 ml PBS, and fixed for CLSM. Nuclei were stained with Hoechst 34850. Scale bar: 20 µm. (D) Beas-2B cells were treated with heparinase I, heparinase III, or chondroitinase ABC for 2 h prior to incubation with 5 µM FITC-ECP^32–41 at 37°C for 1 h. […] Untreated cells served as the controls. The fluorescence of cells treated with FITC-ECP^32–41 was set to 100%. […] (E) Beas-2B cells were treated with heparinase I, heparinase III, or chondroitinase ABC for 2 h. […] Untreated cells served as the control. The fluorescence of the untreated cells was set to 100%.
To verify that selective cell-surface polysaccharides had been enzymatically removed, the treated cells were subsequently incubated with anti-HS or anti-CS monoclonal antibodies. As expected, heparinase I and heparinase III had decreased the amount of HS on Beas-2B cell surfaces by 48% and 61%, respectively (Figure 3E, left panel), and chondroitinase ABC removed 72% of the cell-surface CS (Figure 3E, right panel). The HS that remained on Beas-2B cell surface accounted for the observed ECP^32–41 internalization into heparinase-treated cells. Conversely, even though 70% of the initial cell-surface CS had been removed, ECP^32–41 internalization was hardly affected–thus as concluded above, HS, rather than CS, is responsible for ECP^32–41 internalization.
Beas-2B cells (3.0×10^5/well) were incubated with RPMI 1640 medium overnight in six-well plates and then treated with 5 U/ml of heparinase I, 2.4 U/ml of heparinase III, or 10 U/ml of chondroitinase ABC (Sigma-Aldrich) at 37°C for 2 h. After a PBS wash, the cells were incubated with FITC-ECP^32–41 and assayed for internalization of the peptide by flow cytometry as described above.

Beas-2B cells [2] = assay: Cell viability assay (MTT)
Procedure: Beas-2B cells were grown in serum-free medium in the presence of ECP^32–41 at indicated concentrations for 24 h. (A) The cytotoxic effect of ECP^32–41 was measured by MTT assay. The cell viability of untreated cells was set to 100%. Cells treated with 0.1% Triton X-100 was used as a positive control. (B) The membrane disruption by ECP^32–41 was measured by LDH assay. LDH released from cells lysed with 0.1% Triton X-100 in medium was defined as 100% leakage and LDH released from untreated cells was set as 0% leakage.
Beas-2B cells were incubated with 10 µM eGFP or eGFP-ECP^32–41 at 37°C for 1 h. The cells were then washed with 500 µl PBS, trypsinized at 37°C for 15 min, suspended in 500 µl PBS, and subjected to flow cytometry. (B) Beas-2B cells were treated with the indicated concentrations of TAT^47–57, ECP^32–41, KLA, KLA-TAT^47–57 or KLA-ECP^32–41 at 37°C for 24 h, and their cytotoxic effects were determined by the MTT assay. Cytotoxic effects of (C) KLA-TAT^47–57 and (D) KLA-ECP^32–41, at the indicated concentrations, on Beas-2B, A549, Caco-2, and AGS cells were assessed by the MTT assay after incubation at 37°C for 24 h. The cell viability untreated cells was set to 100%. The result is expressed as the mean ± S.D., n = 3.
The effects of the peptides on cell viability were determined colourimetrically using 3-(4,5-dimethylthiazol-2-yl)-2,5-diphenyltetrazolium bromide (MTT) (US Biological). Cells (1.0×10^4/well) were seeded into the wells of 96-well plates and incubated overnight. Cell samples were then exposed to different concentrations of TAT^47–57, ECP^32–41, KLA, KLA-TAT^47–57 or KLA-ECP^32–41. After 24 h, 100 µl of 0.5 mg/ml MTT in medium was added into each well, and the cells were incubated at 37°C for 3 h. The incubation medium was removed, and the remaining purple crystal formazan was dissolved in dimethylsulphoxide. Cells treated with 0.1% Triton X-100 was used as a positive control for cell viability. A540 values were measured using a multiwall plate reader (Molecular Devices).

Compound: heparinase III
- decrease of the amount of HS on Beas-2B cell surfaces (Beas-2B cells [1]): 61%

Compound: heparinase I
- decrease of the amount of HS on Beas-2B cell surfaces (Beas-2B cells [1]): 48%

Compound: N=C(N)NCCC[C@H](NC(=O)CN)C(=O)N[C@@H](CCCCN)C(=O)N[C@@H](CCCCN)C(=O)N[C@@H](CCCNC(=N)N)C(=O)N[C@@H](CCCNC(=N)N)C(=O)N[C@@H](CCC(N)=O)C(=O)N[C@@H](CCCNC(=N)N)C(=O)N[C@@H](CCCNC(=N)N)C(=O)N[C@@H](CCCNC(=N)N)C(=O)N1CCC[C@H]1C(=O)O [TAT^47–57]
- cell viability (MTT) at 100 µM (Beas-2B cells [2]; Beas-2B, 100 µM peptide, 37°C, 24 h, n = 3): neither peptide affected cell viability

Compound: KLAKLAKKLAKLAK
- cytotoxicity (MTT) (Beas-2B cells [2]): not cytotoxic
